Structures are written as SMILES. Where two headings read alike, the source gives them in different places.

Here are results for five molecules from US8664400B2, “Triphenylamine derivatives useful as fluorophores in biology, in particular for two-photon microscopy” (Centre National de la Recherche Scientifique, priority 2006, dated 2014).

The conditions of data set [1]: according to the literature; cited from earlier work.
Data set [2] is described as follows: Two-photon absorption by two-photon-induced fluorescence (TPIF). It is filed as physicochemical. As for the experimental part:
(§1) The two-photon absorption properties of the compounds according to the invention were assessed using the two-photon-induced fluorescence (TPIF) technique and by means of a Titanium:Sapphire femtosecond laser source with pulses of 90 fs to 76 MHz which can be tuned to 750-840 nm.

For data set [3] the following is noted: 36 μM, 20° C.; cited from earlier work.
Data set [4] in a line: Photostability under irradiation with a 150 W xenon-mercury lamp. It is filed as physicochemical. The note with it: about thirty minutes.
Another data set concerns herring testis DNA. The data set is described as follows: Two-photon absorption (TPIF) in the presence of DNA. The class given is physicochemical. The note with it: for two-photon spectra in presence of DNA compared with glycerol: sodium cacodylate buffer 10 mM, pH 7.3, 5 equivalents herring testis DNA, all excitation wavelengths. The procedure: as §1
Data set [5] can be described thus: Emission and single-photon absorption properties in glycerol or sodium cacodylate buffer. The class given is physicochemical.
Data set [6] concerns duplex DNA of 26 base pairs of self-complementary sequence (ds26). The data set is described as follows: Single-photon absorption and fluorescence emission in the presence of DNA. It is filed as binding. The note with it: for ΦF (quantum fluorescence yield) / ε / λabs. / λem.: DNA.
The test system of a further data set is CHO K1 cells. The data set is described as follows: Epifluorescence and confocal microscopy of fixed, treated cells. The class given is cell-based, Chinese hamster. The procedure: The CHO-K1 cells, cultured beforehand in wells, on glass supports coated with polyornithine, containing a commercially available standard culture medium, were fixed using a formaldehyde (4%) solution in PBS.
The cells were then incubated, at room temperature and for 20 minutes, in the presence of the markers or mixtures of markers to be tested (in aqueous solution) and then washed with PBS buffer (13 mM NaCl, 0.27 mM KCl, 0.15 mM KH2PO4, 0.8 mM Na2HPO4, pH 7.4) in order to remove the excess marker. […] The cells were then prepared conventionally for microscopic examination.
Epifluorescence microscopy examinations were carried out with a Nikon Eclipse E 800 microscope fitted with a 60× (1.4) lens and a Nikon DXM 1200 digital apparatus, while the confocal microscopy examinations were carried out with a Leica DM6000 microscope comprising an SP2 unit equipped with a 63× (1.4) lens and an HeNe laser for excitation of the markers.

The target in the next data set is ds26 DNA. The data set can be described thus: Affinity for DNA by fluorometric titration. It is filed as binding. The note with it: 10 mM sodium cacodylate buffer, pH 7.0, 100 mM NaCl.
Setting [7] is: 10 mM sodium cacodylate, pH 7.0, 5 μM compound, 0.5 to 5 equivalents ds26.

Regarding `C(=Cc1ccc(N(c2ccc(C=Cc3ccncc3)cc2)c2ccc(C=Cc3ccncc3)cc2)cc1)c1ccncc1` [tris[4-(2-pyridin-4-ylvinyl)phenyl]amine, reference compound], the “efficient two-photon absorption section” value in data set [1] is 58 GM; in [2] (measurements performed by the Inventors, in dichloromethane), 90 GM. Also, in data set [2] (in dichloromethane), the two-photon excitation maximum result is on record as “around 820 nm”.
As for `CN1C(=Cc2cc[n+](C)c3ccccc23)Sc2ccccc21` [thiazole orange], the “form in aqueous medium (aggregation)” value in data set [3] is “in the form of dimers”.
Regarding `C[n+]1ccc(C=Cc2ccc(N(c3ccc(C=Cc4cc[n+](C)cc4)cc3)c3ccc(C=Cc4cc[n+](C)cc4)cc3)cc2)cc1.[I-].[I-].[I-]` [TP-3Py, Tris[4-(2-N-methylpyridinium-4-ylvinyl)phenyl]amine iodide], in data set [4], the “effect of irradiation on fluorescence emission” value is “scarcely modified”. In addition, the “two-photon spectra in presence of DNA compared with glycerol” value with herring testis DNA is recorded as “identical to those previously observed in glycerol”. In addition, in data set [5] (Na cacodyl.), the ε was 59 000 L/mol · cm and the λabs. is given as 474 nm. In data set [5] (glyc.), the “ΦF (quantum fluorescence yield)” value was found to be 0.123, the ε is 66 000 L/mol · cm, the λabs. was determined as 491 nm and the λem. is reported as 665 nm. Besides, in data set [6] (setting [7]), the “hypochromism caused by the presence of DNA” value is listed as “about 20%”. For the same molecule, in [6], the “ΦF (quantum fluorescence yield)” value worked out at 0.021, the ε is 51 000 L/mol · cm, the λabs. is 499 nm and the λem. is listed as 684 nm. The “image quality of chromosomes” value in the data set with CHO K1 cells (CHO K1 cells in mitosis, 2 μM, phase contrast and confocal microscopies coupled) was “very high degree of sharpness and a high resolution”. Further, the “location of fluorescence in cells” value in the data set on CHO K1 cells (fixed CHO K1 cells, 2 μM compound with DAPI 3 μM, 20 minutes, epifluorescence microscopy) was “located exclusively in the nucleus”. Also, the “stability at the focal point of the microscope lens” value in the data set with CHO K1 cells (fixed CHO K1 cells, 2 μM, epifluorescence microscopy) is reported as “very stable”.
As for `C[n+]1ccc(C=Cc2ccc(N(c3ccccc3)c3ccc(C=Cc4cc[n+](C)cc4)cc3)cc2)cc1.[I-].[I-]` [TP-2Py, Bis[4-(2-N-methylpyridinium-4-ylvinyl)phenyl]phenylamine iodide], the “dissociation constant Kd” value on ds26 DNA is “of the order of the micromolar”. Also, the “δ (efficient two-photon absorption section)” value in the data set on herring testis DNA (DNA) is reported as 200 GM. Also, the “two-photon spectra in presence of DNA compared with glycerol” value in the data set on herring testis DNA was “identical to those previously observed in glycerol”. Moreover, in data set [5] (Na cacodyl.), the ε is listed as 39 800 L/mol · cm and the λabs. turned out to be 474 nm. For the same molecule, in [5] (glyc.), the “ΦF (quantum fluorescence yield)” value is given as 0.112, the ε is recorded as 37 400 L/mol · cm, the λabs. was 491 nm and the λem. is 656 nm. Further, the “molar extinction coefficient (ε)” value in data set [5] (in glycerol, at 474 nm) is listed as 37 400 L/mol·cm. For the same molecule, in data set [6] (setting [7]), the “hypochromism caused by the presence of DNA” value is on record as “about 20%” and the “shift of absorption spectra caused by the presence of DNA” value was “shift towards the red region”. Besides, in data set [6], the “ΦF (quantum fluorescence yield)” value turned out to be 0.07, the ε is 31 400 L/mol · cm, the λabs. is recorded as 509 nm and the λem. stood at 665 nm. In addition, the “δ (efficient two-photon absorption section)” value in data set [2] (glyc.) is given as 315 GM. In data set [2] (in glycerol), the “wavelength of relative maximum of two-photon absorption” value is roughly 820 nm.
For the molecule `CN1C(=CC=Cc2cc[n+](CCC[N+](C)(C)C)c3ccccc23)Sc2ccccc21.[I-].[I-]` [TO-PRO-3, 1-(N,N,N-trimethylaminopropyl)-4-{2-[3-methyl-2,3-dihydro-(benzo-1,3-thiazole)-2-ethylidene]vinyl}quinolinium iodide, reference compound], the “decrease of fluorescence emission during irradiation” value in data set [4] is “more than 40%”.
